Counter-ions that a name gives are not always drawn.
Columns and labels:
[1] = cited from earlier work
[2] = Solubility with Polyphenolic Polymer in water; details: molecule formulated with Polyphenolic Polymer

| Solubility with Polyphenolic Polymer in water (more than 99%) [2] | Molecule | Reported Solubility in water [1] |
| --- | --- | --- |
| – | Nc1nnc(-c2cccc(Cl)c2Cl)c(N)n1 [6-(2,3-Dichlorophenyl)-1,2,4-triazine-3,5-diamine] | Insoluble |
| – | COc1ccc2c(c1)c(CC(=O)OCC(=O)O)c(C)n2C(=O)c1ccc(Cl)cc1 [Acemetacin] | Insoluble |
| – | C[C@@H](O[C@H]1OCCN(Cc2n[nH]c(=O)[nH]2)[C@H]1c1ccc(F)cc1)c1cc(C(F)(F)F)cc(C(F)(F)F)c1 [Aprepitant] | Insoluble |
| – | O=C1CCc2ccc(OCCCCN3CCN(c4cccc(Cl)c4Cl)CC3)cc2N1 [Aripiprazole, 99%, Aripiprazole] | Insoluble |
| – | C[C@@H]1CC[C@H]2[C@@H](C)C(=O)O[C@@H]3O[C@@]4(C)CC[C@@H]1[C@]32OO4 [Artemisinin] | Insoluble |
| Water Soluble | CC(=O)Oc1ccccc1C(=O)O [Aspirin] | Insoluble |
| – | COc1ccc(CCN2CCC(Nc3nc4ccccc4n3Cc3ccc(F)cc3)CC2)cc1 [Astemizole] | Insoluble |
| – | Nc1ncn([C@@H]2O[C@H](CO)[C@@H](O)[C@H]2O)c(=O)n1 [Azacitidine (Vidaza), Azacitidine] | Insoluble |
| – | Cn1cnc([N+](=O)[O-])c1Sc1ncnc2nc[nH]c12 [Azathioprine] | Insoluble |
| Water Soluble | CN1CCCC(n2nc(Cc3ccc(Cl)cc3)c3ccccc3c2=O)CC1 (stereo not shown) [Azelastine] | Insoluble |
| Water Soluble | CC[C@H]1OC(=O)[C@H](C)[C@@H](O[C@H]2C[C@@](C)(OC)[C@@H](O)[C@H](C)O2)[C@H](C)[C@@H](O[C@@H]2O[C@H](C)C[C@H](N(C)C)[C@H]2O)[C@](C)(O)C[C@@H](C)CN(C)[C@H](C)[C@@H](O)[C@]1(C)O [Azithromycin-dihydrate] | Insoluble |
| Water Soluble | CCCC1O[C@@H]2C[C@H]3[C@@H]4CCC5=CC(=O)C=C[C@]5(C)[C@H]4[C@@H](O)C[C@]3(C)[C@]2(C(=O)CO)O1 (stereo partly shown) [Budesonide, 98%, Budesonide] | Insoluble |
| – | CS(=O)(=O)OCCCCOS(C)(=O)=O [Busulphan] | Insoluble |
| Water Soluble | CC12CCC(CC1=O)C2(C)C (stereo not shown) [Camphor] | Insoluble |
| Water Soluble | CCCCCOC(=O)Nc1nc(=O)n([C@@H]2O[C@H](C)[C@@H](O)[C@H]2O)cc1F [Capecitabine] | Insoluble |
| Water Soluble | NC(=O)N1c2ccccc2C=Cc2ccccc21 [Carbamazepine] | Insoluble |
| – | CC1(C)S[C@@H]2[C@H](NC(=O)C(C(=O)O)c3ccccc3)C(=O)N2[C@H]1C(=O)O (stereo partly shown) [Carbenicillin disodium] | Insoluble |
| – | COc1ccccc1OCCNCC(O)COc1cccc2[nH]c3ccccc3c12 (stereo not shown) [Carvedilol] | Insoluble |
| – | CO/N=C(\C(=O)N[C@@H]1C(=O)N2C(C(=O)O)=C(COC(C)=O)CS[C@H]12)c1csc(N)n1 [Cefotaxime] | Insoluble |
| Water Soluble | Cc1ccc(-c2cc(C(F)(F)F)nn2-c2ccc(S(N)(=O)=O)cc2)cc1 [Celecoxib] | Insoluble |
| Water Soluble | O=C1CCc2cc(OCCCCc3nnnn3C3CCCCC3)ccc2N1 [Cilostazol] | Insoluble |
| Water Soluble | CC[C@H]1OC(=O)[C@H](C)[C@@H](O[C@H]2C[C@@](C)(OC)[C@@H](O)[C@H](C)O2)[C@H](C)[C@@H](O[C@@H]2O[C@H](C)C[C@H](N(C)C)[C@H]2O)[C@](C)(OC)C[C@@H](C)C(=O)[C@H](C)[C@@H](O)[C@]1(C)O [Clarithromycin] | Insoluble |
| – | COC(=O)[C@H](c1ccccc1Cl)N1CCc2sccc2C1 [Clopidogrel Sulfate] | Insoluble |

| Solubility with Polyphenolic Polymer in water (more than 99%) [2] | Molecule | Reported Solubility in water [1] |
| --- | --- | --- |
| Water Soluble | COC1=C(OC)C(=O)C(C/C=C(\C)CC/C=C(\C)CC/C=C(\C)CC/C=C(\C)CC/C=C(\C)CC/C=C(\C)CC/C=C(\C)CC/C=C(\C)CC/C=C(\C)CCC=C(C)C)=C(C)C1=O [CoQ10] | Insoluble |
| – | COc1cccc2c1C(=O)c1c(O)c3c(c(O)c1C2=O)C[C@@](O)(C(C)=O)C[C@@H]3O[C@H]1C[C@H](N)[C@H](O)[C@H](C)O1 [Daunorubicin hydrochloride] | Insoluble |
| Water Soluble | C[C@@H]1C[C@H]2[C@@H]3CCC4=CC(=O)C=C[C@]4(C)[C@@]3(F)[C@@H](O)C[C@]2(C)[C@@]1(O)C(=O)CO [Dexamethasone] | Insoluble |
| – | O=C(O)Cc1ccccc1Nc1c(Cl)cccc1Cl [Diclofenac(pain), Diclofenac] | Insoluble |
| Water Soluble | CC(=O)O[C@@]12CO[C@@H]1C[C@H](O)[C@@]1(C)C(=O)[C@H](O)C3=C(C)[C@@H](OC(=O)[C@H](O)[C@@H](NC(=O)OC(C)(C)C)c4ccccc4)C[C@@](O)([C@@H](OC(=O)c4ccccc4)[C@H]21)C3(C)C [Docetaxel] | Insoluble |
| – | O=c1[nH]c2ccccc2n1CCCN1CCC(n2c(=O)[nH]c3cc(Cl)ccc32)CC1 [Domperidone] | Insoluble |
| Water Soluble | COc1cccc2c1C(=O)c1c(O)c3c(c(O)c1C2=O)C[C@@](O)(C(=O)CO)C[C@@H]3O[C@H]1C[C@H](N)[C@H](O)[C@H](C)O1 [Doxorubicin] | Insoluble |
| – | CN(C)CCC[C@@]1(c2ccc(F)cc2)OCc2cc(C#N)ccc21 [Escitalopram] | Insoluble |
| – | CCc1cccc2c3c([nH]c12)C(CC)(CC(=O)O)OCC3 (stereo not shown) [Etodolac] | Insoluble |
| – | COc1cc([C@@H]2c3cc4c(cc3[C@@H](O[C@@H]3O[C@@H]5CO[C@@H](C)O[C@H]5[C@H](O)[C@H]3O)[C@H]3COC(=O)[C@H]23)OCO4)cc(OC)c1O [Etoposide] | Insoluble |
| – | NC(N)=Nc1nc(CSCCC(N)=NS(N)(=O)=O)cs1 [Famotidine] | Insoluble |
| – | CC(C)(C)NC(=O)[C@H]1CC[C@H]2[C@@H]3CC[C@H]4NC(=O)C=C[C@]4(C)[C@H]3CC[C@]12C [Finasteride] | Insoluble |
| – | COC1=CC(=O)C[C@@H](C)[C@]12Oc1c(Cl)c(OC)cc(OC)c1C2=O [Griseofulvin] | Insoluble |
| – | COc1ccc2c(c1)c(CC(=O)O)c(C)n2C(=O)c1ccc(Cl)cc1 [Indomethacin] | Insoluble |
| – | CC[C@H](C)C(=O)O[C@H]1CCC=C2C=C[C@H](C)[C@H](CC[C@@H]3C[C@@H](O)CC(=O)O3)[C@H]21 [Mevastatin] | Insoluble |
| – | COCCOC(=O)C1=C(C)NC(C)=C(C(=O)OC(C)C)C1c1cccc([N+](=O)[O-])c1 (stereo not shown) [Nimodipine] | Insoluble |
| – | CCn1cc(C(=O)O)c(=O)c2cc(F)c(N3CCNCC3)cc21 [Norfloxacin(antibiotic), Norfloxacin] | Insoluble |
| – | Cc1cc2c(s1)Nc1ccccc1N=C2N1CCN(C)CC1 [Olanzapine] | Insoluble |
| – | C=CC(=O)N1CCC[C@@H](n2nc(-c3ccc(Oc4ccccc4)cc3)c3c(N)ncnc32)C1 [PCI-32765] | Insoluble |
| – | CC(=O)O[C@H]1C(=O)[C@@]2(C)[C@H]([C@H](OC(=O)c3ccccc3)[C@]3(O)C[C@H](OC(=O)[C@H](O)[C@@H](NC(=O)c4ccccc4)c4ccccc4)C(C)=C1C3(C)C)[C@]1(OC(C)=O)CO[C@@H]1C[C@@H]2O [Paclitaxel from Taxus Brevifolia, Paclitaxel] | Insoluble |
| – | CC(=O)Nc1ccc(O)cc1 [Paracetamol] | Insoluble |
| – | C[C@]12C=CC(=O)C=C1CC[C@@H]1[C@@H]2C(=O)C[C@@]2(C)[C@H]1CC[C@]2(O)C(=O)CO [Prednisone] | Insoluble |
| – | Oc1ccc(C=Cc2cc(O)cc(O)c2)cc1 [Resveratrol] | Insoluble |

| Molecule | Solubility with Polyphenolic Polymer in water (more than 99%) [2] | Reported Solubility in water [1] |
| --- | --- | --- |
| CC[C@H](CC[C@@H](C)[C@H]1CC[C@H]2[C@@H]3CC=C4C[C@@H](O)CC[C@]4(C)[C@H]3CC[C@]12C)C(C)C [Beta-sitosterol] | Water Soluble | – |
| CC[C@@]1(O)C(=O)OCc2c1cc1n(c2=O)Cc2cc3ccccc3nc2-1 [Camptothecin] | Water Soluble | Insoluble |
| CN1C[C@H](C(=O)N[C@]2(C)O[C@@]3(O)[C@@H]4CCCN4C(=O)[C@H](Cc4ccccc4)N3C2=O)C[C@@H]2c3cccc4[nH]cc(c34)C[C@H]21 [Dihydroergotamine Mesylate] | Water Soluble | Insoluble |
| C/C(=C\c1csc(C)n1)[C@@H]1C[C@@H]2O[C@@H]2CCC[C@H](C)[C@H](O)[C@@H](C)C(=O)C(C)(C)[C@@H](O)CC(=O)O1 [Epothilone A] | Water Soluble | – |
| N[C@@H](Cc1ccc(N(CCCl)CCCl)cc1)C(=O)O [Melphalan(cancer), Melphalan] | Water Soluble | – |
| C[C@@H]1[C@H](O)[C@@H](C)/C=C/C=C/CC/C=C/C=C/C=C/C=C/C(O[C@H]2O[C@H](C)[C@@H](O)[C@H](N)[C@@H]2O)CC2O[C@](O)(CC(O)C(O)CCC(O)CC(O)CC(O)CC(=O)O[C@H]1C)CC(O)C2C(=O)O (stereo partly shown) [Nystatin mycostatin] | Water Soluble | – |
| Ivermectin | Water Soluble | – |
| Pyrethrin | Water Soluble | – |
